# Test results taken from patent US20150274719A1, “AMINO-SUBSTITUTED IMIDAZO[1,2-A]PYRIDINECARBOXAMIDES AND THEIR USE” (BAYER PHARMA AKTIENGESELLSCHAFT, priority 2012, published 2015).
# Target: T1, recombinant guanylate cyclase reporter cell line (Rattus norvegicus, UniProt P19686+P20595)
# T1 construct: expressed in transfected cells; host or cells: recombinant reporter cell line
# T1 sequence (P19686 1-690): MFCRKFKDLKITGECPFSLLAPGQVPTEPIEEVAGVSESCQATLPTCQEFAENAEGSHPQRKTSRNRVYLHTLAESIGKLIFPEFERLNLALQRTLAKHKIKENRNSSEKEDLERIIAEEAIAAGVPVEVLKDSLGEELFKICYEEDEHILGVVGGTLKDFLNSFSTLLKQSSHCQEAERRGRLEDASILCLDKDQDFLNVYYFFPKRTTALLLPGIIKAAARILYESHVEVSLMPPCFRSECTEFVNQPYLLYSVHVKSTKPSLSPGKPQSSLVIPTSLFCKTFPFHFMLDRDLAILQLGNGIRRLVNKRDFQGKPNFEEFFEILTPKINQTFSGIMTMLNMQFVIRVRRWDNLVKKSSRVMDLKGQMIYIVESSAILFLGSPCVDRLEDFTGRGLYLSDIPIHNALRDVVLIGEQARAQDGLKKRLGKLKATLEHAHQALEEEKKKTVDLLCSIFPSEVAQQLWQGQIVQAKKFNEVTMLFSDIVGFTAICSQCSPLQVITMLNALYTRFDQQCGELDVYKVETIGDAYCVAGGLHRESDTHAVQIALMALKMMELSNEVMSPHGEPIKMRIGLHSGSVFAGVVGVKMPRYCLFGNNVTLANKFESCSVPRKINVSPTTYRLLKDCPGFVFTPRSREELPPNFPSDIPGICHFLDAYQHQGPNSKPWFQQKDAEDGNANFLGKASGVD
# T1 sequence (P20595 1-619): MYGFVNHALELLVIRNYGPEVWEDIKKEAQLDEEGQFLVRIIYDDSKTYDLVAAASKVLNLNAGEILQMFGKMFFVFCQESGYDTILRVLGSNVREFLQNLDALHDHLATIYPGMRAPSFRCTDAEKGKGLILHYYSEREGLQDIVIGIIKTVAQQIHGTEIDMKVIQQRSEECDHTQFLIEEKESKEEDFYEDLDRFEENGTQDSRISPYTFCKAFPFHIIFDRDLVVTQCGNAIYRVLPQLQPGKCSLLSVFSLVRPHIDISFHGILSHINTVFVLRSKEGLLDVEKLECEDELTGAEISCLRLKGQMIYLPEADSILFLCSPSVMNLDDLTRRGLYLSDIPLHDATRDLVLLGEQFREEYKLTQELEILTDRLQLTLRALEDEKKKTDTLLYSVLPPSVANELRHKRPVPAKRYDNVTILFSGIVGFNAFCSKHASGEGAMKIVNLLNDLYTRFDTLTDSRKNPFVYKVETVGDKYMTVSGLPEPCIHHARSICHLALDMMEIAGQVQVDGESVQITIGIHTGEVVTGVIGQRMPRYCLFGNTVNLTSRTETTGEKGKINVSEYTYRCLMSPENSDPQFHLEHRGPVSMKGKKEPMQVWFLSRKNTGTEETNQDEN
# Assay: Action on recombinant guanylate cyclase reporter cell line
# Type: cell-based
# Conditions: in some cases mean values from individual determinations
# Summary of the method: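 Whole-cell reporter assay with recombinant guanylate cyclase; endpoint = minimal effective concentration.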
row,Compound,MEC (minimal effective concentration) [µM]
1,"Cc1nc2c(OCc3c(F)cccc3F)cc(Cl)cn2c1C(=O)NC1CNCc2ccccc21 (single isomer, unassigned; ent-6) [Example 108, ent-6-chloro-8-[(2,6-difluorobenzyl)oxy]-2-methyl-N-(1,2,3,4-tetrahydroisoquinolin-4-yl)imidazo[1,2-a]pyridine-3-carboxamide]",1.00
2,"Cc1nc2c(OCc3c(F)cccc3F)cc(Cl)cn2c1C(=O)NCC1CCCCN1 (single isomer, unassigned; ent-6) [Example 190, ent-6-Chloro-8-[(2,6-difluorobenzyl)oxy]-2-methyl-N-(piperidin-2-ylmethyl)imidazo[1,2-a]-pyridine-3-carboxamide]",1.00
3,"Cc1nc2c(OCc3c(F)cccc3F)cc(Cl)cn2c1C(=O)NCC1CCCCN1 (single isomer, unassigned; ent-6) [Example 191, ent-6-Chloro-8-[(2,6-difluorobenzyl)oxy]-2-methyl-N-(piperidin-2-ylmethyl)imidazo[1,2-a]-pyridine-3-carboxamide]",1.00
4,"Cc1nc2c(OCc3c(F)cccc3F)cccn2c1C(=O)NC1CNc2ccccc21 (single isomer, unassigned; ent-8) [Example 47, ent-8-[(2,6-Difluorobenzyl)oxy]-N-(2,3-dihydro-1H-indol-3-yl)-2-methylimidazo[1,2-a]pyridine-3-carboxamide]",0.30
5,"Cc1nc2c(OCc3c(F)cccc3F)cccn2c1C(=O)NC1CCNc2ccccc21 (single isomer, unassigned; ent-8) [Example 52, ent-8-[(2,6-Difluorobenzyl)oxy]-2-methyl-N-(1,2,3,4-tetrahydroquinolin-4-yl)imidazo[1,2-a]-pyridine-3-carboxamide]",0.03
6,"Cc1nc2c(OCc3c(F)cccc3F)cccn2c1C(=O)NC1CNc2ccccc2C1 (single isomer, unassigned; ent-8) [Example 81, ent-8-[(2,6-Difluorobenzyl)oxy]-2-methyl-N-(1,2,3,4-tetrahydroquinolin-3-yl)imidazo[1,2-a]-pyridine-3-carboxamide]",1.00
7,"Cc1nc2c(OCc3c(F)cccc3F)cccn2c1C(=O)NC1CCNc2ccc(F)cc21 (single isomer, unassigned; ent-8) [Example 105, ent-8-[(2,6-difluorobenzyl)oxy]-N-(6-fluoro-1,2,3,4-tetrahydroquinolin-4-yl)-2-methylimidazo[1,2-a]pyridine-3-carboxamide]",0.30
8,"Cc1nc2c(OCc3c(F)cccc3F)cccn2c1C(=O)NC1CCNc2ccc(F)cc21 (single isomer, unassigned; ent-8) [Example 106, ent-8-[(2,6-difluorobenzyl)oxy]-N-(6-fluoro-1,2,3,4-tetrahydroquinolin-4-yl)-2-methylimidazo[1,2-a]pyridine-3-carboxamide]",0.03
9,"Cc1nc2c(OCc3c(F)cccc3F)cccn2c1C(=O)NC1CNCc2ccccc21 (single isomer, unassigned; ent-8) [Example 109, ent-8-[(2,6-difluorobenzyl)oxy]-2-methyl-N-(1,2,3,4-tetrahydroisoquinolin-4-yl)imidazo[1,2-a]pyridine-3-carboxamide]",1.00
10,"Cc1nc2c(OCc3c(F)cccc3F)cccn2c1C(=O)NC1CNCc2ccccc21 (single isomer, unassigned; ent-8) [Example 110, ent-8-[(2,6-difluorobenzyl)oxy]-2-methyl-N-(1,2,3,4-tetrahydroisoquinolin-4-yl)imidazo[1,2-a]pyridine-3-carboxamide]",0.30
11,"Cc1nc2c(OCc3c(F)cccc3F)cccn2c1C(=O)NC1CCNc2ccc(C(F)(F)F)cc21 (single isomer, unassigned; ent-8) [Example 111, ent-8-[(2,6-difluorobenzyl)oxy]-2-methyl-N-[6-(trifluoromethyl)-1,2,3,4-tetrahydroquinolin-4-yl]imidazo[1,2-a]pyridine-3-carboxamide]",1.00
12,"Cc1nc2c(OCc3c(F)cccc3F)cccn2c1C(=O)NC1CCNc2ccc(C(F)(F)F)cc21 (single isomer, unassigned; ent-8) [Example 112, ent-8-[(2,6-difluorobenzyl)oxy]-2-methyl-N-[6-(trifluoromethyl)-1,2,3,4-tetrahydroquinolin-4-yl]imidazo[1,2-a]pyridine-3-carboxamide]",0.10
13,"Cc1nc2c(OCc3c(F)cccc3F)cccn2c1C(=O)NCC(C)N1CCOCC1 (single isomer, unassigned; ent-8) [Example 180, ent-8-[(2,6-Difluorobenzyl)oxy]-2-methyl-N-[2-(morpholin-4-yl)propyl]imidazo[1,2-a]pyridine-3-carboxamide]",1.00
14,"Cc1nc2c(OCc3c(F)cccc3F)cccn2c1C(=O)NCC(C)N1CCOCC1 (single isomer, unassigned; ent-8) [Example 181, ent-8-[(2,6-Difluorobenzyl)oxy]-2-methyl-N-[2-(morpholin-4-yl)propyl]imidazo[1,2-a]pyridine-3-carboxamide]",1.00
15,"Cc1nc2c(OCc3c(F)cccc3F)cccn2c1C(=O)NC(CN1CCOCC1)c1ccccc1 (single isomer, unassigned; ent-8) [Example 182, ent-8-[(2,6-Difluorobenzyl)oxy]-2-methyl-N-[2-(morpholin-4-yl)-1-phenylethyl]imidazo[1,2-a]-pyridine-3-carboxamide]",3.00
16,"Cc1nc2c(OCc3c(F)cccc3F)cccn2c1C(=O)NC(CN1CCOCC1)c1ccccc1 (single isomer, unassigned; ent-8) [Example 183, ent-8-[(2,6-Difluorobenzyl)oxy]-2-methyl-N-[2-(morpholin-4-yl)-1-phenylethyl]imidazo[1,2-a]-pyridine-3-carboxamide]",1.00
17,"Cc1cc(OCc2c(F)cccc2F)c2nc(C)c(C(=O)NCC(C)N3CCOCC3)n2c1 (single isomer, unassigned; ent-8) [Example 186, ent-8-[(2,6-Difluorobenzyl)oxy]-2,6-dimethyl-N-[2-(morpholin-4-yl)propyl]imidazo[1,2-a]-pyridine-3-carboxamide]",0.30
18,"Cc1cc(OCc2c(F)cccc2F)c2nc(C)c(C(=O)NCC(C)N3CCOCC3)n2c1 (single isomer, unassigned; ent-8) [Example 187, ent-8-[(2,6-Difluorobenzyl)oxy]-2,6-dimethyl-N-[2-(morpholin-4-yl)propyl]imidazo[1,2-a]-pyridine-3-carboxamide]",0.30
19,"Cc1nc2c(OCc3c(F)cccc3F)cccn2c1C(=O)NCC(C(C)C)N(C)C (single isomer, unassigned; ent-8) [Example 188, ent-8-[(2,6-Difluorobenzyl)oxy]-N-[2-(dimethylamino)-3-methylbutyl]-2-methylimidazo[1,2-a]-pyridine-3-carboxamide]",1.00
20,"Cc1nc2c(OCc3c(F)cccc3F)cccn2c1C(=O)NCC(C(C)C)N(C)C (single isomer, unassigned; ent-8) [Example 189, ent-8-[(2,6-Difluorobenzyl)oxy]-N-[2-(dimethylamino)-3-methylbutyl]-2-methylimidazo[1,2-a]-pyridine-3-carboxamide]",3.00
21,"Cc1nc2c(OCc3c(F)cccc3F)cccn2c1C(=O)NC(CNCC(F)(F)F)c1ccc(F)c(F)c1 (single isomer, unassigned; ent-8) [Example 222, ent-8-[(2,6-Difluorobenzyl)oxy]-N-{1-(3,4-difluorophenyl)-2-[(2,2,2-trifluoroethyl)amino]ethyl}-2-methylimidazo[1,2-a]pyridine-3-carboxamide]",0.30
